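Dose response: 5 concentrations. Exposure: 48 h. Format: 96-well plates. Endpoint: linear interpolation; highest concentration if not reached. At the GI50, growth is halved.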 Activity calls are given as the source filed them. Rule as the data show it: active = GI50 up to about 1.1 µM and inactive = higher.
Assays:
Assay in all cases: NCI-60 cell line screen, 48 h
CCRF-CEM = tested on: CCRF-CEM
COLO 205 = tested on: COLO 205
HCT-116 = tested on: HCT-116
HCT-15 = tested on: HCT-15
HL-60 = tested on: HL-60
HOP-62 = tested on: HOP-62
K562 = tested on: K562
KM12 = tested on: KM12
LOX IMVI = tested on: LOX IMVI
MOLT-4 = tested on: MOLT-4
OVCAR-4 = tested on: OVCAR-4
OVCAR-8 = tested on: OVCAR-8
SF-268 = tested on: SF-268
SF-539 = tested on: SF-539
SK-OV-3 = tested on: SK-OV-3
SW-620 = tested on: SW-620
NCI-H23 = tested on: NCI-H23
SK-MEL-2 = tested on: SK-MEL-2
HCC 2998 = tested on: HCC 2998
U-251 = tested on: U-251

SMILES	GI50 (CCRF-CEM)	GI50 (COLO 205)	GI50 (HCT-116)	GI50 (HCT-15) [µM]	GI50 (HL-60)	GI50 (HOP-62)	GI50 (K562)	GI50 (KM12)	GI50 (LOX IMVI)	GI50 (MOLT-4)	GI50 (OVCAR-4)	GI50 (OVCAR-8)	GI50 (SF-268)	GI50 (SF-539)	GI50 (SK-OV-3)	GI50 (SW-620)	GI50 (NCI-H23)	GI50 (SK-MEL-2)	GI50 (HCC 2998)	GI50 (U-251)
O=C(Nc1c(C(=O)NC2CCCCC2)[nH]c(=O)[nH]c1=O)c1ccc(Cl)cc1	> 100 µM (inactive)	> 100 µM (inactive)	> 100 µM (inactive)	> 100	> 100 µM (inactive)	> 100 µM (inactive)	> 100 µM (inactive)	49.3 µM (inactive)	> 100 µM (inactive)	> 100 µM (inactive)	> 100 µM (inactive)	> 100 µM (inactive)	> 100 µM (inactive)	> 100 µM (inactive)	> 100 µM (inactive)	> 100 µM (inactive)	–	–	–	–
CCOC(=O)c1c(N=C(S)Nc2ccccc2)sc2c1CCN(C)C2	> 100 µM (inactive)	> 100 µM (inactive)	> 100 µM (inactive)	> 100	> 100 µM (inactive)	> 100 µM (inactive)	> 100 µM (inactive)	> 100 µM (inactive)	–	> 100 µM (inactive)	–	> 100 µM (inactive)	> 100 µM (inactive)	> 100 µM (inactive)	–	–	> 100 µM (inactive)	> 100 µM (inactive)	–	–
N#CCc1c(F)c(F)c(F)c(F)c1F	> 100 µM (inactive)	> 100 µM (inactive)	> 100 µM (inactive)	> 100	> 100 µM (inactive)	> 100 µM (inactive)	> 100 µM (inactive)	> 100 µM (inactive)	> 100 µM (inactive)	> 100 µM (inactive)	–	> 100 µM (inactive)	> 100 µM (inactive)	> 100 µM (inactive)	> 100 µM (inactive)	> 100 µM (inactive)	> 100 µM (inactive)	–	> 100 µM (inactive)	> 100 µM (inactive)
N=c1c2ccccc2nc2oc3ccc(Cl)cc3n12	43.9 µM (inactive)	29.4 µM (inactive)	10.6 µM (inactive)	48	–	5.81 µM (inactive)	9.2 µM (inactive)	> 100 µM (inactive)	3.21 µM (inactive)	35.3 µM (inactive)	2.77 µM (inactive)	9.66 µM (inactive)	34.2 µM (inactive)	15.5 µM (inactive)	13.1 µM (inactive)	5.62 µM (inactive)	14.1 µM (inactive)	20.6 µM (inactive)	> 100 µM (inactive)	5.38 µM (inactive)
CCCCCCCSc1nc2c(C(=O)OCC)ncn2c2ccccc12	> 100 µM (inactive)	> 100 µM (inactive)	> 100 µM (inactive)	> 100	> 100 µM (inactive)	43.3 µM (inactive)	> 100 µM (inactive)	> 100 µM (inactive)	> 100 µM (inactive)	> 100 µM (inactive)	–	> 100 µM (inactive)	> 100 µM (inactive)	–	> 100 µM (inactive)	> 100 µM (inactive)	> 100 µM (inactive)	> 100 µM (inactive)	> 100 µM (inactive)	> 100 µM (inactive)
CN(C)CCC(O)(c1ccccc1)C(O)(CCN(C)C)c1ccccc1 (centres undefined)	> 100 µM (inactive)	72.9 µM (inactive)	–	> 100	–	> 100 µM (inactive)	48.9 µM (inactive)	> 100 µM (inactive)	–	> 100 µM (inactive)	> 100 µM (inactive)	> 100 µM (inactive)	> 100 µM (inactive)	–	> 100 µM (inactive)	> 100 µM (inactive)	> 100 µM (inactive)	> 100 µM (inactive)	> 100 µM (inactive)	> 100 µM (inactive)
CC[C@]12C=CCN3CC[C@@]4(c5cc(Br)c(OC)c([N+](=O)[O-])c5N(C)[C@H]4[C@@](O)(C(=O)OC)[C@@H]1OC(C)=O)[C@@H]32	24.7 µM (inactive)	27.8 µM (inactive)	45.8 µM (inactive)	65.3	33.7 µM (inactive)	87.5 µM (inactive)	0.443 µM (active)	47.6 µM (inactive)	34.6 µM (inactive)	13.2 µM (inactive)	52.8 µM (inactive)	30.5 µM (inactive)	30.1 µM (inactive)	> 100 µM (inactive)	> 100 µM (inactive)	23.8 µM (inactive)	56.9 µM (inactive)	74.1 µM (inactive)	–	43.4 µM (inactive)
Cc1ccc(NC(=O)C(Cc2c[nH]c3ccccc23)NC(=O)Oc2ccccc2)cc1C (centres undefined)	35.1 µM (inactive)	50.4 µM (inactive)	61.5 µM (inactive)	62.4	40.6 µM (inactive)	> 100 µM (inactive)	59 µM (inactive)	23.8 µM (inactive)	47.9 µM (inactive)	57.5 µM (inactive)	44.3 µM (inactive)	57.5 µM (inactive)	50.7 µM (inactive)	> 100 µM (inactive)	> 100 µM (inactive)	> 100 µM (inactive)	> 100 µM (inactive)	85.9 µM (inactive)	–	80.2 µM (inactive)

Reference: ChEMBL document CHEMBL1201862, “PubChem BioAssay data set” (2004)
